From US10703740B2, “Substituted benzimidazoles, their preparation and their use as pharmaceuticals” (NEOMED Institute, priority 2015, dated 2020) come the findings set out here.

One assay relates to human C-Myc transcription in MV-4-11 cells. The assay can be described thus: Transcription of human C-Myc in human leukemic MV-4-11 cells (QuantiGene 2.0). In kind it is cell-based. Conditions: Homo sapiens, MV4-11, 4 h, inhibition of C-Myc mRNA, 4 hours treatment, read-out: IC50 MV-4-11 Cell. Here is the method:
The effect of compounds on transcription of human C-Myc gene is monitored in human B-myelomonocytic leukemia cell line MV-4-11 (from American Type Culture Collection (ATCC), Manassas, Va., USA) using QuantiGene 2.0 assay kit (Affymetrix, Santa Clara, Calif., USA).
Typically, 8,000 MV-4-11 cells are plated in sterile 96-well plates (Costar #3598 from Fisher Scientific Canada, Ottawa, Ontario, Canada) in Iscove's medium supplemented with 10% fetal bovine serum, glutamine (2 mM), and penicillin (100 I.U.) and streptomycin (100 μg/mL) (all from Wisent Inc., St. Bruno, Quebec, Canada). Compounds are dissolved in DMSO at 30 mM. A series of 1:3 dilutions are first made in DMSO, and further 1:100 dilutions are made in serum-containing cell culture media. The final concentration of DMSO is 0.1% in cell culture media. After cells are treated with various concentrations of test compound for 4 hours, cells are lysed using Quantigene 2.0 sample processing kit (# QS0100). C-Myc mRNA is detected using a QuantiGene 2.0 assay kit (# QS0009) with gene-specific probe to human C-Myc (# SA-50182) following the manufacturer's recommendations. Luminescene signals are read on Flexstation II microplate reader (Molecular Devices, Sunnyvale, Calif., USA).
One may read the IC50 as the midpoint of a concentration-inhibition curve. Turning to `Cc1cc(-c2ccc3nc(C4CCOCC4)n(CC(C)C(F)(F)F)c3c2)cn(C)c1=O` (stereo not shown) [Compound 46a, 1,3-dimethyl-5-(2-(tetrahydro-2H-pyran-4-yl)-1-(3,3,3-trifluoro-2-methylpropyl)-1H-benzo[d]imidazol-6-yl)pyridin-2(1H)-one], the IC50 is 220 nM. On the same count and under the same terms, in the case of `CCO[C@@H](C)Cn1c(C2CCC(F)(F)CC2)nc2ccc(-c3cc(C)c(=O)n(C)c3)cc21` [Compound 55, (S)-5-(2-(4,4-difluorocyclohexyl)-1-(2-ethoxypropyl)-1H-benzo[d]imidazol-6-yl)-1,3-dimethylpyridin-2(1H)-one] it was 53 nM. Same read-out and setting: to `COC[C@@H](C)n1c(C(F)(F)F)nc2ccc(-c3cc(C)c(=O)n(C)c3)cc21` [Compound 26, 5-[3-[(1R)-2-methoxy-1-methyl-ethyl]-2-(trifluoromethyl)benzimidazol-5-yl]-1,3-dimethylpyridin-2-one] belongs 230 nM; to `COCCn1c(C2CCCCC2)nc2ccc(-c3cc(C)c(=O)n(C)c3)cc21` [Compound 38, 5-(2-cyclohexyl-1-(2-methoxyethyl)-1H-benzo[d]imidazol-6-yl)-1,3-dimethylpyridin-2(1H)-one], 240 nM. Same read-out and setting: in the case of `CCc1cc(-c2ccc3nc(C4CC4)n(CCOC(F)(F)F)c3c2)cn(C)c1=O` [Compound 14, 5-(2 cyclopropyl-3-(2-(trifluoromethoxy)ethyl)benzimidazol-5-yl)-3-ethyl-1-methylpyridin-2-one] it was 250 nM; in that of `CCO[C@H](C)Cn1c(C2CCOCC2)nc2ccc(-c3cc(C)c(=O)n(C)c3)cc21` [Compound 39, (R)-5-(1-(2-ethoxypropyl)-2-(tetrahydro-2H-pyran-4-yl)-1H-benzo[d]imidazol-6-yl)-1,3-dimethylpyridin-2(1H)-one], 84 nM. On to `COCCn1c(Cc2ccccc2)nc2ccc(-c3cc(C)c(=O)n(C)c3)cc21` [Compound 37, 5-(2-benzyl-1-(2-methoxyethyl)-1H-benzo[d]imidazol-6-yl)-1,3-dimethylpyridin-2(1H)-one], for which the IC50 amounted to 490 nM. Same read-out and setting: to `CO[C@H]1C[C@H](c2nc3ccc(-c4cc(C)c(=O)n(C)c4)cc3n2CCOC(F)(F)F)C1` [Compound 28a] belongs 50 nM; to `Cn1cc(-c2ccc3nc(C4CC4)n(CCOC(F)(F)F)c3c2)cc(C2CC2)c1=O` [Compound 19, 3-cyclopropyl-5-[2-cyclopropyl-3-[2-(trifluoromethoxy)ethyl]benzimidazol-5-yl]-1-methylpyridin-2-one], 870 nM; to `Cc1cc(-c2ccc3nc(C4CC(F)(F)C4)n(CCOC(F)(F)F)c3c2)cn(C)c1=O` [Compound 27, 5-[2-(3,3-difluorocyclobutyl)-3-[2-(trifluoromethoxy)ethyl]benzimidazol-5-yl]-1,3-dimethylpyridin-2-one], 92 nM. Still for that read-out and setting: to `CCOC[C@H](C)n1c(C2CCOCC2)nc2ccc(-c3cc(C)c(=O)n(C)c3)cc21` [Compound 48, (S)-5-(1-(1-ethoxypropan-2-yl)-2-(tetrahydro-2H-pyran-4-yl)-1H-benzo[d]imidazol-6-yl)-1,3-dimethylpyridin-2(1H)-one] belongs 260 nM; to `COC[C@H](C)n1c(C2CCOCC2)nc2ccc(-c3cc(C)c(=O)n(C)c3)cc21` [Compound 18, 5-[3-[(1S)-2-methoxy-1-methylethyl]-2-tetrahydropyran-4-yl-benzimidazol-5-yl]-1,3-dimethylpyridin-2-one], 170 nM; to `Cc1cc(-c2ccc3nc(CC4CCOCC4)n(CCOC(F)(F)F)c3c2)cn(C)c1=O` [Compound 43, 1,3-dimethyl-5-(2-((tetrahydro-2H-pyran-4-yl)methyl)-1-(2-(trifluoromethoxy)ethyl)-1H-benzo[d]imidazol-6-yl)pyridin-2(1H)-one], 27 nM. As to `COCCn1c(C2CCC(F)(F)CC2)nc2ccc(-c3cc(C)c(=O)n(C)c3)cc21` [Compound 44, 5-(2-(4,4-difluorocyclohexyl)-1-(2-methoxyethyl)-1H-benzo[d]imidazol-6-yl)-1,3-dimethylpyridin-2(1H)-one], the IC50 came out at 98 nM. Still for that read-out and setting: to `COC1CC(c2nc3ccc(-c4cc(C)c(=O)n(C)c4)cc3n2CCOCC(F)(F)F)C1` (stereo not shown) [Compound 62, 5-[2-(3-methoxycyclobutyl)-1-(2-(2,2,2-trifluoroethoxy)ethyl)-1H-benzo[d]imidazol-6-yl]-1,3-dimethylpyridin-2(1H)-one] belongs 21 nM; to `CCO[C@@H](C)Cn1c(C2CC(F)(F)C2)nc2ccc(-c3cc(C)c(=O)n(C)c3)cc21` [Compound 53, (S)-5-(2-(3,3-difluorocyclobutyl)-1-(2-ethoxypropyl)-1H-benzo[d]imidazol-6-yl)-1,3-dimethylpyridin-2(1H)-one], 76 nM; to `Cc1cc(-c2ccc3nc([C@H]4CCCO4)n(CCOC(F)(F)F)c3c2)cn(C)c1=O` (stereo in doubt) [Compound 30a, 1,3-dimethyl-5-[2-tetrahydrofuran-2-yl-3-[2-(trifluoromethoxy)ethyl]benzimidazol-5-yl]pyridin-2-one], 200 nM.

In the case of `CCOCCn1c(C2CCOCC2)nc2ccc(-c3cc(C)c(=O)n(C)c3)cc21` [Compound 60, 5-(1-(2-ethoxyethyl)-2-(tetrahydro-2H-pyran-4-yl)-1H-benzo[d]imidazol-6-yl)-1,3-dimethylpyridin-2(1H)-one], the IC50 was 17 nM. The same measure, in the same setting: in the case of `CO[C@H](C)Cn1c(C2CCC(F)(F)CC2)nc2ccc(-c3cc(C)c(=O)n(C)c3)cc21` [Compound 58, (R)-5-(2-(4,4-difluorocyclohexyl)-1-(2-methoxypropyl)-1H-benzo[d]imidazol-6-yl)-1,3-dimethylpyridin-2(1H)-one] it was 160 nM.

Take `CCOC[C@@H](C)n1c(C2CC(F)(F)C2)nc2ccc(-c3cc(C)c(=O)n(C)c3)cc21` [Compound 52, (R)-5-(2-(3,3-difluorocyclobutyl)-1-(1-ethoxypropan-2-yl)-1H-benzo[d]imidazol-6-yl)-1,3-dimethylpyridin-2(1H)-one]: the IC50 amounted to 51 nM. Still for that read-out and setting: in the case of `Cc1cc(-c2ccc3nc(C4CCOCC4)n(CCOC(C)C)c3c2)cn(C)c1=O` [Compound 49, 5-(1-(2-isopropoxyethyl)-2-(tetrahydro-2H-pyran-4-yl)-1H-benzo[d]imidazole-6-yl)-1,3-dimethylpyridin-2(1H)-one] it was 22 nM; in that of `Cn1cc(-c2ccc3nc(C4CCOCC4)n(CCOC(F)(F)F)c3c2)cc(Cl)c1=O` [Compound 36, 3-chloro-1-methyl-5-[2-tetrahydropyran-4-yl-3-[2-(trifluoromethoxy)ethyl]benzimidazol-5-yl]pyridin-2-one], 53 nM. On the same count and under the same terms, in the case of `Cc1cc(-c2ccc3nc(C4CCOCC4)n(C[C@H](C)OC(C)C)c3c2)cn(C)c1=O` [Compound 67, (S)-5-(1-(2-isopropoxypropyl)-2-(tetrahydro-2H-pyran-4-yl)-1H-benzo[d]imidazol-6-yl)-1,3-dimethylpyridin-2(1H)-one] it was 26 nM; in that of `CO[C@H]1C[C@@H](c2nc3ccc(-c4cc(C)c(=O)n(C)c4)cc3n2CCOC(F)(F)F)C1` [Compound 28b], 50 nM.

Staying with this assay, now noted: inhibition of C-Myc mRNA, 4 hours treatment, read-out: IC50 MV-4-11 Cell.
Turning to `Cc1cc(-c2ccc3nc(C4CCOCC4)n(CC(C)C(F)(F)F)c3c2)cn(C)c1=O` (stereo not shown) [Compound 46b, 1,3-dimethyl-5-(2-(tetrahydro-2H-pyran-4-yl)-1-(3,3,3-trifluoro-2-methylpropyl)-1H-benzo[d]imidazol-6-yl)pyridin-2(1H)-one], the IC50 amounted to 250 nM. On the same count and under the same terms, to `COC1CC(c2nc3ccc(-c4cc(C)c(=O)n(C)c4)cc3n2CCOC(C)C)C1` (stereo not shown) [Compound 64, 5-[1-(2-isopropoxyethyl)-2-(3-methoxycyclobutyl)-1H-benzo[d]imidazol-6-yl]-1,3-dimethylpyridin-2(1H)-one] belongs 51 nM; to `COC(C)Cn1c(C2CCOCC2)nc2ccc(-c3cc(C)c(=O)n(C)c3)cc21` (single isomer, unassigned) [Compound 35b, 5-[3-(2-methoxypropyl)-2-tetrahydropyran-4-yl-benzimidazol-5-yl]-1,3-dimethyl pyridin-2-one], 86 nM. Still for that read-out and setting: to `Cc1cc(-c2ccc3nc(C4CCOC4)n(CCOC(F)(F)F)c3c2)cn(C)c1=O` (single isomer, unassigned) [Compound 29a, 1,3-dimethyl-5-[2-tetrahydrofuran-3-yl-3-[2-(trifluoromethoxy)ethyl]benzimidazol-5-yl]pyridin-2-one] belongs 220 nM; to `COC(C)Cn1c(C2CC2)nc2ccc(-c3cc(C)c(=O)n(C)c3)cc21` (single isomer, unassigned) [Compound 23a, 5-[2-cyclopropyl-3-(2-methoxypropyl)benzimidazol-5-yl]-1,3-dimethylpyridin-2-one], 250 nM. On the same count and under the same terms, to `COC(C)Cn1c(C)nc2ccc(-c3cc(C)c(=O)n(C)c3)cc21` (stereo not shown) [Compound 21b, 5-[3-(2-methoxypropyl)-2-methylbenzimidazol-5-yl]-1,3-dimethylpyridin-2-one] belongs 590 nM. Turning to `Cc1cc(-c2ccc3nc(C4CCOC4)n(CCOC(F)(F)F)c3c2)cn(C)c1=O` (single isomer, unassigned) [Compound 29b, 1,3-dimethyl-5-[2-tetrahydrofuran-3-yl-3-[2-(trifluoromethoxy)ethyl]benzimidazol-5-yl]pyridin-2-one], the IC50 was 77 nM.
